The structures appear in SMILES notation. Some results are limits rather than exact numbers.

Common to all, as to test: IC50 determination, spectrophotometric protease assay
Format in all cases: biochemical

The target of assay [1] is T1, β-tryptase (recombinant tryptase β-2) (Homo sapiens, UniProt P20231).
T1 construct: purchased EnzoLife Sciences
How it is done: (§1) The IC50 values were determined using a spectrophotometric assay. All the experiments were conducted in duplicate. The readout consisted of evaluating the protease-mediated release of the chromophore para-nitroaniline (pNA) or fluorophore 7-amino-4-methyl coumarin (AMC) moieties from the respective substrates. Enzymatic activity was measured for 30 min at 37°C. All compounds were initially screened at three concentrations (10, 1, and .1 μM) to estimate the range of the IC50 value. Those which were able to reduce protease activity by at least 50% at a concentration of 10 μM were submitted to an exact IC50 determination. […] A third independent experiment was performed when the standard deviation of the two independent experiments was higher than […]. IC50 values were obtained by fitting the data with the four-parameter logistics equation using GraphPad Prism 9.
(§2) The conditions for each protease are described as follows, the concentration of substrate used was at the corresponding Km.

In assay [2] the target is T2, Thrombin (recombinant thrombin) (Homo sapiens, UniProt P00734).
T2 construct: purchased R&D
As for the experimental part:
as §1, §2

Assay [3] deals with T3, TLCK-treated pancreatic bovine chymotrypsin (Bos taurus, UniProt P00766).
T3 construct: TLCK-treated pancreatic bovine chymotrypsin (Sigma-Aldrich); purchased Sigma-Aldrich; host or cells: bovine pancreas
To be noted: for ChTryp IC50: alkyne probes, 15 min preincubation at 37°C, mean ± SD. As for the experimental part: as §1, §2

Assay [4] deals with T4, Cathepsin G (cathepsin G human neutrophil) (Homo sapiens, UniProt P08311).
T4 construct: Cathepsin G (cathepsin G human neutrophil, Sigma-Aldrich); purchased Sigma-Aldrich; host or cells: human neutrophil
T4 sequence (P08311 21-255): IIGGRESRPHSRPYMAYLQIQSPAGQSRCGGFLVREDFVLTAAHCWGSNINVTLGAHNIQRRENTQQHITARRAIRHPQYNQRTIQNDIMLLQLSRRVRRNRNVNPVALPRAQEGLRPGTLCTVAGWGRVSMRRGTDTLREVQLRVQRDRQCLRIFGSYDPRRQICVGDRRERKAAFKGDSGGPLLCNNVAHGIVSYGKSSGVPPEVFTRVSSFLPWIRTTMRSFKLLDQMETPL
To be noted: for CatG IC50: alkyne probes, 15 min preincubation at 37°C, mean ± SD. As for the experimental part: as §1, §2

The target in assay [5] is T5, Trypsin-3 (recombinant trypsin-3) (Homo sapiens, UniProt P35030).
T5 construct: purchased R&D
T5 sequence (P35030 1-304): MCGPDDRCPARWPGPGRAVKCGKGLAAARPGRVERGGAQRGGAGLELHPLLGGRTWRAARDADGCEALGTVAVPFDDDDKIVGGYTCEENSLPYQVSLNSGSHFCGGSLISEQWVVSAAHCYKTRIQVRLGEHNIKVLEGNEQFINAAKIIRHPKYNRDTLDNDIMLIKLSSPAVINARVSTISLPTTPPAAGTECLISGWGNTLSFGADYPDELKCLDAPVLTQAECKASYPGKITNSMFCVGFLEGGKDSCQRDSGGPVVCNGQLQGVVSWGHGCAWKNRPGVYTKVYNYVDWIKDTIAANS
How it is done:
as §1, §2

For assay [6], the target named is T6, Neutrophil Elastase (recombinant neutrophil elastase) (Homo sapiens, UniProt P08246).
T6 construct: purchased Enzo LifeSciences
T6 sequence (P08246 30-267): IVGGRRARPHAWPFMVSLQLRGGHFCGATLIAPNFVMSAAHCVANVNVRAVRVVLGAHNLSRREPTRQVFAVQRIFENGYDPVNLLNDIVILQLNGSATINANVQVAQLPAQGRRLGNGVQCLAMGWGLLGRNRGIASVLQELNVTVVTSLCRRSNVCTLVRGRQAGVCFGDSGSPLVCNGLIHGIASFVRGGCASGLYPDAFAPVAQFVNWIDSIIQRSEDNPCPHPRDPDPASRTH
How it is done: as §1, §2

Assay [7] addresses T7, uPA (recombinant urokinase plasminogen activator) (Homo sapiens, UniProt P00749).
T7 construct: purchased HYPHEN BioMed
How it is done: as §1, §2

The mark [8] stands for this setting: alkyne probes, 15 min preincubation at 37°C, mean ± SD.

T1 sequence (P20231 31-275): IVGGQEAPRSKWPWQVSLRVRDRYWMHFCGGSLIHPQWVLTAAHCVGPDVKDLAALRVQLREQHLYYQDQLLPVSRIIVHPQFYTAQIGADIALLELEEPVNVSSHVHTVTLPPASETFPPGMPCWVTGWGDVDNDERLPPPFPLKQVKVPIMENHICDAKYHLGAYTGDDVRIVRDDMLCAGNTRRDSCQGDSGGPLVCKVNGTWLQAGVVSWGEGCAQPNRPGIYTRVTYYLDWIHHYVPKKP

For `C#CCCCOC(=O)NC(Cc1ccc(N)cc1)P(=O)(Oc1ccc(NC(C)=O)cc1)Oc1ccc(NC(C)=O)cc1` (stereo not drawn) [17b], the IC50 in assay [1] is > 10 µM; in assay [2], 2.97 ± 0.07 µM; in assay [3] it was 0.49 ± 0.28 µM; in assay [4], 0.37 ± 0.008 µM; in assay [5] it was 3.71 ± 0.71 µM; in assay [6] it was > 10 µM. In assay [7], the IC50 was > 10 µM. The “ChTryp IC50” value in assay [3] was “submicromolar”. Besides, the “CatG IC50” value in assay [4] is reported as “submicromolar”.
Turning to `C#CCCCOC(=O)NC(CCCN)P(=O)(Oc1ccccc1)Oc1ccccc1.O=C(O)C(F)(F)F` (stereo not drawn) [14b], the IC50 in assay [1], in assay [2], in assay [3], in assay [4], in assay [5] and in assay [6] was > 10 µM each time. In assay [7], the IC50 is > 10 µM. The “β-tryptase IC50” value in assay [1] (setting [8]) is “inactive”. For the same molecule, in assay [2] (setting [8]), the “Thrombin IC50” value is “inactive”. For the same molecule, the “ChTryp IC50” value in assay [3] was “inactive”. Further, the “CatG IC50” value in assay [4] was “inactive”. In assay [5] (setting [8]), the “Trypsin-3 IC50” value is “inactive”. Besides, the “NE IC50” value in assay [6] (setting [8]) was “inactive”. The “uPA IC50” value in assay [7] (setting [8]) is “inactive”.
Take `C#CCCCOC(=O)NC(Cc1ccccc1)P(=O)(Oc1ccccc1)Oc1ccccc1` (stereo not drawn) [compound 12]: the IC50 in assay [1] is > 10 µM; in assay [2], > 10 µM; in assay [3], 1.54 ± 1.34 µM; in assay [4], > 10 µM; in assay [5], > 10 µM; in assay [6], > 10 µM. In assay [7], the IC50 is > 10 µM.
